Laboratory results: PubChem BioAssay (NCI)
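Five compound concentrations were applied to cells in 96-well plates for 48 hours; endpoints were derived by simple linear interpolation of the resulting dose-response curve. GI50 = concentration required for 50% inhibition of growth. TGI: total growth inhibition.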 Activity calls are given as the source filed them. Cut-off read from the data, not from the text of the source: active = GI50 below about 0.43 µM; inactive = the rest.

Legend:
Experiment in all cases: NCI-60 cell line screen, 48 h
HCC-2998 colon = system: HCC-2998 colon
IGROV1 ovarian = system: IGROV1 ovarian
NCI-H522 lung = system: NCI-H522 lung
SK-MEL-28 melanoma = system: SK-MEL-28 melanoma
SNB-75 CNS = system: SNB-75 CNS
U251 CNS = system: U251 CNS
ACHN renal = system: ACHN renal

| Compound | TGI (HCC-2998 colon) | TGI (IGROV1 ovarian) | TGI (NCI-H522 lung) | TGI (SK-MEL-28 melanoma) | TGI (SNB-75 CNS) | TGI (U251 CNS) | TGI (ACHN renal) | GI50 (ACHN renal) | GI50 (HCC-2998 colon) | GI50 (IGROV1 ovarian) | GI50 (NCI-H522 lung) | GI50 (SK-MEL-28 melanoma) | GI50 (SNB-75 CNS) | GI50 (U251 CNS) | outcome (ACHN renal) | outcome (NCI-H522 lung) | outcome (SK-MEL-28 melanoma) | outcome (SNB-75 CNS) | outcome (U251 CNS) |
| --- | --- | --- | --- | --- | --- | --- | --- | --- | --- | --- | --- | --- | --- | --- | --- | --- | --- | --- | --- |
| Cc1ccc(C#CS(=O)(=O)C(F)(F)F)cc1 | > 100 µM | > 100 µM | > 100 µM | > 100 µM | > 100 µM | > 100 µM |  |  |  |  |  |  |  |  |  |  |  |  |  |
| NCCS(=O)(=O)O | > 100 µM | > 100 µM | > 100 µM | > 100 µM | > 100 µM | > 100 µM | > 100 µM |  |  |  |  |  |  |  |  |  |  |  |  |
| CC(=O)c1[nH]c(Nc2ccc(C)cc2)c(C(=S)Nc2ccccc2)c1N | 56.5 µM | 35.7 µM | 32.5 µM | 45.3 µM | 50.3 µM | 29.9 µM | 36.2 µM |  |  |  |  |  |  |  |  |  |  |  |  |
| O=Cc1c(Br)[nH]c2ccccc12 | > 100 µM | > 100 µM | > 100 µM | > 100 µM | > 100 µM | > 100 µM |  |  |  |  |  |  |  |  |  |  |  |  |  |
| O=C(c1ccccc1O)c1cc(-c2ncc3c(=O)c4ccccc4oc3n2)c(-c2ccccc2O)[nH]c1=O | 38.2 µM | > 70.1 µM | 61.5 µM | 65.3 µM | > 100 µM | 27.7 µM |  |  |  |  |  |  |  |  |  |  |  |  |  |
| N#Cc1ccc(C2Oc3ccc(Cl)cc3C=C2[N+](=O)[O-])cc1 (stereo not given) | 3.21 µM | 3.11 µM | 2.92 µM | 3.31 µM | 2.83 µM | 3.31 µM | 3.06 µM |  |  |  |  |  |  |  |  |  |  |  |  |
| O=C(Nc1ccc(Sc2ccc(N=Nc3c(O)c(S(=O)(=O)O)cc4cc(S(=O)(=O)O)ccc34)cc2)cc1)c1ccc(N=Nc2c(O)c(S(=O)(=O)O)cc3cc(S(=O)(=O)O)ccc23)cc1 | > 100 µM | > 100 µM | 35.4 µM | 86.5 µM | > 100 µM | > 100 µM | > 100 µM |  |  |  |  |  |  |  |  |  |  |  |  |
| C[N+]1([O-])[C@H]2CC(OC(=O)[C@H](CO)c3ccccc3)C[C@H]1[C@H]1O[C@H]12 (stereo not given in full) |  | > 100 µM | > 100 µM | > 100 µM | > 100 µM | > 100 µM | > 100 µM |  |  |  |  |  |  |  |  |  |  |  |  |
| COc1ccc([C@H]2c3cc4c(cc3OC(O)(CO)[C@H]2C(=O)O)OCO4)c(OC)c1 (stereo not given in full) (tested in a mixture with another compound) | > 100 µM | > 100 µM |  | 95.8 µM | > 100 µM | > 100 µM | > 100 µM |  |  |  |  |  |  |  |  |  |  |  |  |
| CCOC(=O)C1=C(c2ccccc2)C12N(Cc1ccccc1)C(=O)C2(c1ccccc1)c1ccccc1 (stereo not given) | 90.3 µM | > 100 µM | 75.2 µM | > 100 µM |  | > 100 µM | > 100 µM |  |  |  |  |  |  |  |  |  |  |  |  |
| O=NN1C(c2ccccc2)CCCC1c1ccccc1 (stereo not given) | > 100 µM | > 100 µM | > 81.2 µM | > 100 µM | > 77.6 µM | > 100 µM |  |  |  |  |  |  |  |  |  |  |  |  |  |
| COc1cc(/C(=C2/O[C@@H]([C@H]3COC(C)(C)O3)[C@H]3OC(C)(C)O[C@@H]23)c2ccc3c(c2)OCO3)cc(OC)c1OC | > 25 µM | > 25 µM | > 25 µM | > 25 µM | > 25 µM | > 25 µM | > 25 µM | 4.68 µM | > 25 µM | > 25 µM | > 25 µM | 16.1 µM | 7.13 µM | > 25 µM |  |  |  |  |  |
| O=P(O)(O)CN1CCNCCN(CP(=O)(O)O)CCN(CP(=O)(O)O)CCNCC1 |  |  |  |  |  |  |  |  |  |  |  |  |  |  | inactive | inactive | inactive | inactive | inactive |
| O=C1c2cc3c(cc2CC1Cc1ccc2c(c1)CCC2)CCC3 (stereo not given) | > 100 µM | > 100 µM | > 100 µM | > 100 µM | 75.5 µM | > 100 µM | > 100 µM |  |  |  |  |  |  |  |  |  |  |  |  |
| O=C(c1ccccc1)c1c(C(F)(F)F)n([O-])c2cc(F)c(F)cc2[n+]1=O |  | 6.79 µM | > 7.96 µM | > 100 µM |  |  | 0.232 µM |  |  |  |  |  |  |  |  |  |  |  |  |
| O=C(CSCC(=O)N/N=C\c1ccccc1F)N/N=C\c1ccccc1F | > 100 µM | > 100 µM | > 100 µM | > 100 µM | > 100 µM | > 100 µM | > 100 µM |  |  |  |  |  |  |  |  |  |  |  |  |
| CCCCOc1ccc2c(c1)CC[C@@H]1[C@@H]2CC[C@]2(C)C(=O)N(CCCC)C(=O)C[C@@H]12 | > 100 µM | > 100 µM | > 100 µM |  | > 100 µM | > 100 µM |  |  |  |  |  |  |  |  |  |  |  |  |  |
| COc1cc(-c2nc3cc(Cl)c(Cl)cc3[nH]2)ccc1OCC(=O)N=Nc1c(O)[nH]c2ccc(Cl)cc12 |  |  | 2.08 µM |  | 3.93 µM | 0.565 µM | > 100 µM | 1.69 µM |  |  | 0.386 µM |  | 1 µM | 0.203 µM |  |  |  |  |  |
